Results as given in US10059975B2, “Methods for the isolation and identification of microorganisms” (bioMerieux, Inc., priority 2008, dated 2018).

Key:
Type in all cases: cell-based
[1] = tested on: Streptococcus pneumoniae, strain WM-43; experiment: Effect of detergent type on Gram reactivity, viability and intrinsic fluorophores; set-up: key to Viability of Pellet: NG (no growth); 4+(maximal growth); details: for Gram Stain of Pellet: Bacteria (cocci): detergent in 0.3M CAPS, pH 11.7, 1 min at 37° C.; for Viability of Pellet: 1:100 dilution of resuspended pellet plated on Sheep Blood Agar, scale NG to 4+; for effect on Gram reaction/reactivity of the S. pneumoniae isolate (in words): Table 4
Experimental: Lysis buffers were prepared containing detergents of differing structure and lytic activity in a base buffer formulation of 0.3M CAPS, pH 11.7. These lysis buffers were functionally assessed using positive blood culture broth containing a clinical microorganism strain known to be sensitive to detergents and alkaline pH conditions, Streptococcus pneumoniae, strain WM-43. Parameters evaluated were microbial intrinsic fluorescence levels (Excitation-Emission Matrix spectra), separation efficiency, appearance of isolated microbial pellet, and Gram stain characteristics and viability of microorganisms recovered from the pellet beneath the density cushion.
The procedure was performed as follows:
Mix 2 parts of positive broth with 1 part of test lysis buffer, incubate in a 37° C. water bath for 1 minute to lyse blood cells, then layer 0.5 mL of lysate over 0.2 mL of density cushion (14% w/v Iohexyl+1.93% w/v NaCl+10 mM Hepes, pH 7.4) dispensed into a 2-piece optical separation tube which was then hermetically sealed with a screw-cap. After centrifuging the tube in an Eppendorf 5417R microcentrifuge fitted with a A-8-11 swing out rotor for 2 minutes at 10,000 rpm, the tube was placed into a custom-built adapter which coupled the base of the tube directly to a 400 micron fiber optic probe connected to a spectrofluorimeter (Fluorolog® 3 from Horiba Jobin-Yvon, New Jersey), and a complete EEM scan was taken (Ex 260-850 nm; Em 260-1100 nm; every 5 nm). Following the scan, the supernatant was removed and the microbial pellet resuspended in 0.5 mL of Tryptic Soy Broth (TSB). Smears of the suspensions were prepared for Gram staining and twenty microliters of a 1:100 dilution were plated onto Sheep Blood Agar plates for viability estimation on a scale of NG (no growth) to 4+(maximal growth).

[2] = tested on: S. pneumoniae strain, WM43; experiment: Further testing of lysis buffers in combination with density cushions; details: irrespective of the makeup of the density cushion
[3] = tested on: A. actinomycetecomitans; experiment: Viable counts following lysis buffer treatment
Experimental: (§1) A screening model was developed to enable testing the sensitivity of a larger number of microbial isolates to several detergents. Briefly, suspensions of test fastidious microorganisms were spiked into human blood-containing BacT/ALERT® SA culture media at 10^3-10^5 CFU/mL. Samples were treated with test Lysis Buffers for 1-5 minutes at 37 C, then if required, diluted 1:100 into TSB and plated for viable counts.

[4] = tested on: C. hominis; experiment: Viable counts following lysis buffer treatment
Experimental: as §1

[5] = tested on: H. influenzae; experiment: Viable counts following lysis buffer treatment
Experimental: as §1

[6] = tested on: H. parainfluenzae; experiment: Viable counts following lysis buffer treatment
Experimental: as §1

[7] = tested on: N. meningitidis; experiment: Viable counts following lysis buffer treatment
Experimental: as §1

[8] = tested on: S. pneumoniae WM43; experiment: Viable counts following lysis buffer treatment
Experimental: as §1

[9] = tested on: S. pneumoniae WM48; experiment: Viable counts following lysis buffer treatment
Experimental: as §1

[10] = tested on: fastidious microorganisms; experiment: Screening model, summary over the panel; details: summary of the colony counts of Table 6
Experimental: as §1

[11] = tested on: S. pneumoniae, S. pyogenes, S. agalactiae, S. mitis, P. mirabilis, K. pneumoniae and E. coli; experiment: Follow up experiment: viability after 5-minute contact time; details: data not shown

With CCCCCCCCO[C@@H]1O[C@H](CO)[C@@H](O)[C@H](O)[C@H]1O [Detergent 1, n-octyl glucoside, reference compound] the “Gram Stain of Pellet: Bacteria (cocci)” value [1] was “No organisms seen”.
C[C@H](CCC(=O)NCCC[N+](C)(C)CCCS(=O)(=O)[O-])[C@H]1CC[C@H]2[C@@H]3[C@H](O)C[C@@H]4C[C@H](O)CC[C@]4(C)[C@H]3C[C@H](O)[C@]12C [Detergent 2, CHAPS, reference compound] was tested, and the “Gram Stain of Pellet: Bacteria (cocci)” value [1] was “Rare Gram negative”.
For CCCCCCCCCCCCOCCOCCOCCOCCOCCOCCOCCOCCOCCO [Detergent 6, nonaethylene glycol monododecyl ether, reference compound], the “Viability of Pellet” value [1] was 4+, the “effect on Gram reaction/reactivity of the S. pneumoniae isolate (in words)” value [1] was “relatively minor effect” and the “viability of the recovered S. pneumoniae cells (in words)” value [2] was “not as high”.
In the case of Arlasolve 200 [Detergent 11], the “Gram Stain of Pellet: Bacteria (cocci)” value [1] is reported as 3+ Gram positive.
In the case of Brij ® 96V [Detergent 9], the “Gram Stain of Pellet: Bacteria (cocci)” value [1] is reported as 3+ Gram positive.
Brij ® 97 [Detergent 10] was tested, and the “Viability of Pellet” value [1] was 4+, the “Gram Stain of Pellet: Bacteria (cocci)” value [1] was 3+ Gram positive and the “Viable Counts Following Lysis Buffer Treatment” value ([3]; 1 min at 37 C) was 0. For the same compound, the “Viable Counts Following Lysis Buffer Treatment” value ([3]; 5 min at 37 C) was 0, the “Viable Counts Following Lysis Buffer Treatment” value ([4]; 1 min at 37 C) was 74 and the “Viable Counts Following Lysis Buffer Treatment” value ([4]; 5 min at 37 C) was 28. For the same compound, the “Viable Counts Following Lysis Buffer Treatment” value ([5]; 1 min at 37 C) was 0, the “Viable Counts Following Lysis Buffer Treatment” value ([5]; 5 min at 37 C) was 0 and the “Viable Counts Following Lysis Buffer Treatment” value ([6]; 1 min at 37 C) was 124. The “Viable Counts Following Lysis Buffer Treatment” value ([6]; 5 min at 37 C) was 19, the “Viable Counts Following Lysis Buffer Treatment” value ([7]; 1 min at 37 C) was 0 and the “Viable Counts Following Lysis Buffer Treatment” value ([7]; 5 min at 37 C) was 0. For the same compound, the “Viable Counts Following Lysis Buffer Treatment” value ([8]; 1 min at 37 C) was 18, the “Viable Counts Following Lysis Buffer Treatment” value ([8]; 5 min at 37 C) was 7 and the “Viable Counts Following Lysis Buffer Treatment” value ([9]; 1 min at 37 C) was 14. The “Viable Counts Following Lysis Buffer Treatment” value ([9]; 5 min at 37 C) was 11, the “toxicity over the panel (in words)” value [10] was “minimal toxicity” and the “viability (in words)” value [11] was “remained unaffected”.
With Brij ® 98 [Detergent 12] the “Gram Stain of Pellet: Bacteria (cocci)” value [1] was 3+ Gram positive.
Genapol ® C-100 [Detergent 7] was tested, and the “Gram Stain of Pellet: Bacteria (cocci)” value [1] was 3+ Gram positive, the “Viable Counts Following Lysis Buffer Treatment” value ([3]; 1 min at 37 C) was 0 and the “Viable Counts Following Lysis Buffer Treatment” value ([3]; 5 min at 37 C) was 0. The “Viable Counts Following Lysis Buffer Treatment” value ([4]; 1 min at 37 C) was 0, the “Viable Counts Following Lysis Buffer Treatment” value ([4]; 5 min at 37 C) was 0 and the “toxicity (in words)” value ([4]; compared with Brij® 97) was “slightly more toxic”. The “Viable Counts Following Lysis Buffer Treatment” value ([5]; 1 min at 37 C) was 0, the “Viable Counts Following Lysis Buffer Treatment” value ([5]; 5 min at 37 C) was 0 and the “Viable Counts Following Lysis Buffer Treatment” value ([6]; 1 min at 37 C) was 0. For the same compound, the “Viable Counts Following Lysis Buffer Treatment” value ([6]; 5 min at 37 C) was 0, the “toxicity (in words)” value ([6]; compared with Brij® 97) was “slightly more toxic” and the “Viable Counts Following Lysis Buffer Treatment” value ([7]; 1 min at 37 C) was 0. The “Viable Counts Following Lysis Buffer Treatment” value ([7]; 5 min at 37 C) was 0, the “Viable Counts Following Lysis Buffer Treatment” value ([8]; 1 min at 37 C) was 30 and the “Viable Counts Following Lysis Buffer Treatment” value ([8]; 5 min at 37 C) was 19. For the same compound, the “Viable Counts Following Lysis Buffer Treatment” value ([9]; 1 min at 37 C) was 17, the “Viable Counts Following Lysis Buffer Treatment” value ([9]; 5 min at 37 C) was 12 and the “viability (in words)” value [11] was “remained unaffected”.
For Genapol ® X-080 [Detergent 5], the “effect on Gram reaction/reactivity of the S. pneumoniae isolate (in words)” value [1] was “relatively minor effect”.
For Genapol ® X-100 [Detergent 8], the “Viability of Pellet” value [1] was 4+ and the “Gram Stain of Pellet: Bacteria (cocci)” value [1] was 3+ Gram positive.
In the case of Triton ® X100-R [Detergent 3], the “Gram Stain of Pellet: Bacteria (cocci)” value [1] is reported as 2+ Gram negative and the “viability of the recovered S. pneumoniae cells (in words)” value [2] is reported as “not as high”.
